Results published in US9581594B2, “Porphyrin—modified antimicrobial peptides for application as indicators of microbial targets” (priority 2013, dated 2017).
Bridge positions count the residues as written; N and C are the ends. Ends that are not written are not given here.

Tests used:
[1] = format: physicochemical; settings: for solubility with addition of 10% DMSO: 10% dimethylsulfoxide final concentration; for solubility in water: water / aqueous solution
Source text: It is still insufficient to resolve spectrophotometric characteristics with […] as evidenced by the low absorbance intensity and indistinct bands in both absorbance and fluorescence characteristics (FIGS. 1A and 1B). […] In FIGS. 2A-2D, the more traditional Soret and Q-bands in the absorbance spectra are evident, and the expected two peak fluorescence emission spectra are observed. […] Each of the constructs has unique peak positions as well as varying extinction coefficients for the Soret and Q-bands. Fluorescence emission is also uniquely varying amongst the tracers. These factors tend to indicate the formation of unique complexes providing the potential desired for these materials.

B. globigii = test: Microtiter plate absorbance/fluorescence analysis of interaction with bacterial cells (B. globigii); format: cell-based
Procedure: (§1) C1TPP and C1TPP-modified antimicrobial peptides were evaluated in a microtiter plate format using a Tecan XSafire monochromator-based microplate reader. Absorbance measurements were collected between 380 and 800 nm at 2 nm resolution. Fluorescence measurements were collected at 2 nm resolution for emission between 550 and 800 nm with excitation at 415 nm and for excitation between 385 and 619 nm with emission at 730 nm.
(§2) The microtiter plate format described above was utilized for analysis of interactions between the porphyrin-AMP constructs and bacterial cells, specifically, E. coli and B. globigii. The bacterial cells utilized were collected at mid-log phase growth and rinsed with water to remove growth media. They were then resuspended in water at approximately 3.5×10^7 cfu/mL. Analyses looked at changes in fluorescence and absorbance for fixed cell concentrations with varying tracer concentrations as well as for fixed tracer concentrations with varying cell concentrations. FIGS. 3A and 3B present data for the interaction between C1TPP and the two cell types, with absorbance (A) and fluorescence (B) spectra for C1TPP in water (black, 10% DMSO) and in the presence of E. coli (dashes) and B. globigii (dots) at 1.8×10^6 cfu/mL.

E. coli = test: Microtiter plate absorbance/fluorescence analysis of interaction with bacterial cells (E. coli); format: cell-based
Procedure: as §1, §2

| Compound | solubility with addition of 10% DMSO [1] | solubility in water [1] | changes in fluorescence on interaction with cells (B. globigii; B. globigii cells) | changes in absorbance or fluorescence characteristics on interaction with cells (B. globigii; B. globigii cells, range of concentrations evaluated) | changes in fluorescence on interaction with cells (E. coli; E. coli cells) | changes in absorbance or fluorescence characteristics on interaction with cells (E. coli; E. coli cells, range of concentrations evaluated) | peak/trough pair in the Soret region of the absorbance difference spectrum (B. globigii; in the presence of B. globigii cells) | peak/trough pair in the Soret region of the absorbance difference spectrum (E. coli; in the presence of E. coli cells) |
| --- | --- | --- | --- | --- | --- | --- | --- | --- |
| O=C(O)c1ccc(-c2c3nc(c(-c4ccccc4)c4ccc([nH]4)c(-c4ccccc4)c4nc(c(-c5ccccc5)c5ccc2[nH]5)C=C4)C=C3)cc1 [C1TPP, 5-mono(4-carboxyphenyl)-10,15,20-triphenyl porphine] | increased somewhat | minimally soluble | overall quench | did not produce concentration dependent changes | overall quench | did not produce concentration dependent changes |  |  |
| C1-Bac: C1TPP covalently attached to Bactenecin (RLCRIVVIRVCR; cyclized via disulfide bridge) (disulfide 3-11 (inferred); also: C1TPP covalently attached, site not given here) | sufficient to maintain the solubility | precipitated from aqueous solution | noted for only the highest concentrations of tracer used |  | noted for only the highest concentrations of tracer used |  | 476/432 | 476/432 |
